Data published in the supplement of paper PMC11451515.

System: P12-Ichikawa
Experiment: cell viability relative to DMSO control; higher = less cytotoxic
Settings: 48 h
Procedure, shortened: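 Viability values are per-plate percentages of DMSO wells, with background from cell-free wells. Library compounds in DMSO were pin-dosed, in an 11-point threefold series from 47 μM to 0.79 nM, onto NOMO1 or SEM (500 cells/well) or P12-Ichikawa (1000 cells/well) leukemia cells in 1536-well plates (5 μl). Those cells had been adapted for at least four passages in each medium, and CellTiter-Glo One luminescence was read after 48 h at 37°C.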

[1] = HPLM + 10% dialyzed FBS, 0.000781 µM
[2] = HPLM + 10% dialyzed FBS, 0.00234 µM
[3] = HPLM + 10% dialyzed FBS, 0.00702 µM
[4] = HPLM + 10% dialyzed FBS, 0.0211 µM
[5] = HPLM + 10% dialyzed FBS, 0.0632 µM
[6] = HPLM + 10% dialyzed FBS, 0.19 µM
[7] = HPLM + 10% dialyzed FBS, 0.569 µM
[8] = HPLM + 10% dialyzed FBS, 1.71 µM
[9] = HPLM + 10% dialyzed FBS, 5.12 µM
[10] = HPLM + 10% dialyzed FBS, 15.4 µM
[11] = HPLM + 10% dialyzed FBS, 46.1 µM
[12] = RPMI 5 mM glucose + 10% FBS, 0.000781 µM
[13] = RPMI 5 mM glucose + 10% FBS, 0.00234 µM
[14] = RPMI 5 mM glucose + 10% FBS, 0.00702 µM
[15] = RPMI 5 mM glucose + 10% FBS, 0.0211 µM
[16] = RPMI 5 mM glucose + 10% FBS, 0.0632 µM
[17] = RPMI 5 mM glucose + 10% FBS, 0.19 µM
[18] = RPMI 5 mM glucose + 10% FBS, 0.569 µM
[19] = RPMI 5 mM glucose + 10% FBS, 1.71 µM
[20] = RPMI 5 mM glucose + 10% FBS, 5.12 µM
[21] = RPMI 5 mM glucose + 10% FBS, 15.4 µM
[22] = RPMI 5 mM glucose + 10% FBS, 46.1 µM
[23] = RPMI 5 mM glucose + 10% dialyzed FBS, 0.000781 µM
[24] = RPMI 5 mM glucose + 10% dialyzed FBS, 0.00234 µM
[25] = RPMI 5 mM glucose + 10% dialyzed FBS, 0.00702 µM
[26] = RPMI 5 mM glucose + 10% dialyzed FBS, 0.0211 µM
[27] = RPMI 5 mM glucose + 10% dialyzed FBS, 0.0632 µM
[28] = RPMI 5 mM glucose + 10% dialyzed FBS, 0.19 µM
[29] = RPMI 5 mM glucose + 10% dialyzed FBS, 0.569 µM
[30] = RPMI 5 mM glucose + 10% dialyzed FBS, 1.71 µM
[31] = RPMI 5 mM glucose + 10% dialyzed FBS, 5.12 µM
[32] = RPMI 5 mM glucose + 10% dialyzed FBS, 15.4 µM
[33] = RPMI 5 mM glucose + 10% dialyzed FBS, 46.1 µM

Row | SMILES | cell viability [1] | cell viability [2] | cell viability [3] | cell viability [4] | cell viability [5] | cell viability [6] | cell viability [7] | cell viability [8] | cell viability [9] | cell viability [10] | cell viability [11] | cell viability [12] | cell viability [13] | cell viability [14] | cell viability [15] | cell viability [16] | cell viability [17] | cell viability [18] | cell viability [19] | cell viability [20] | cell viability [21] | cell viability [22] | cell viability [23] | cell viability [24] | cell viability [25] | cell viability [26] | cell viability [27] | cell viability [28] | cell viability [29] | cell viability [30] | cell viability [31] | cell viability [32] | cell viability [33]
1 | O=C(c1ccccc1)c1ccc2n1CCC2C(=O)O (centres undefined) | 113% | 111% | 114% | 111% | 112% | 106% | 109% | 91.7% | 75.8% | 64.6% | 71.5% | 127% | 117% | 124% | 119% | 120% | 113% | 117% | 96.3% | 84.5% | 57.3% | 62.8% | 104% | 108% | 106% | 107% | 99.1% | 108% | 98.6% | 93.6% | 72.6% | 52.8% | 61.8%
2 | CCOC(=O)\C1=C\[C@]2(CC)CCCN3CCC4=C([C@H]23)[N]1C5=C4C=CC=C5 | 98.7% | 106% | 107% | 104% | 111% | 105% | 110% | 102% | 115% | 108% | 101% | 99.6% | 118% | 109% | 110% | 123% | 111% | 109% | 116% | 111% | 114% | 79.6% | 89.5% | 106% | 109% | 104% | 107% | 108% | 113% | 105% | 105% | 109% | 65.7%
3 | CN1CC(=O)N2[C@H](c3ccc4c(c3)OCO4)c3[nH]c4ccccc4c3C[C@@H]2C1=O | 100% | 99.2% | 100% | 97.9% | 104% | 96.6% | 101% | 91.6% | 89.9% | 89.6% | 78.8% | 92.4% | 96.8% | 90.4% | 92.6% | 95% | 103% | 90% | 94.1% | 82.7% | 96.9% | 79.6% | 89.8% | 92% | 92.6% | 89.6% | 90.9% | 92.1% | 85.1% | 87% | 83.6% | 81% | 78.5%
